What follows are molecules tested against T1, human 5HT1A-serotonergic receptor (Homo sapiens, UniProt P08908) (assay: Radioligand binding to recombinant 5-HT1A receptors). Settings: [3H]8-OH-DPAT 1 nM, membranes of HeLa cells with human 5-HT1A receptor; Ki from IC50 by Cheng & Prusoff; read-out: Binding affinity for 5HT1A receptors, Ki.
T1 construct: expressed in transfected cells; host or cells: HeLa (human cell line), stably transfected; cell membranes used
T1 sequence (P08908 1-422): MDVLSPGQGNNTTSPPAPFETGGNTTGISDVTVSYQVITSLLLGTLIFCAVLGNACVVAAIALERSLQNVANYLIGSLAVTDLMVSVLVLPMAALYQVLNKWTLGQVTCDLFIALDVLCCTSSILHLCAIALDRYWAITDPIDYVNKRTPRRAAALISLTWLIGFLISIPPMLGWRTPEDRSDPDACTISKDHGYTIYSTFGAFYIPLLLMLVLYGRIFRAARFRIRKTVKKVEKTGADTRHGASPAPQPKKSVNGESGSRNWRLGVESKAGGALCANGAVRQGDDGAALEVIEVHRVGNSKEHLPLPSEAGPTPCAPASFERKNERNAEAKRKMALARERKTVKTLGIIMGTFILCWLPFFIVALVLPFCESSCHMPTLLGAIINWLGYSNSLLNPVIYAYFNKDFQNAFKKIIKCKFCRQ
Method: Genomic clone G-21 coding for the human 5HT1A-serotonergic receptor was stably transfected in a human cell line (HeLa). HeLa cells were grown as monolayers in Dulbecco's modified Eagle medium (DMEM), containing 10% foetal bovine serum, gentamicin ([…]) and 5% carbon dioxide, at 37° C. The cells were detached from the growth flask at 95% confluence by a cell scraper and were lysed in cold 5 mM Tris and 5 mM EDTA buffer (pH 7.4). The homogenates were centrifuged at 40000×g×20 minutes and the pellets were resuspended in a small volume of cold 5 mM Tris and 5 mM EDTA buffer (pH 7.4) and immediately frozen and stored at −70° C. until use. On the day of experiment, the cell membranes were resuspended in incubation buffer: 50 mM Tris HCl (pH 7.4), 2.5 mM MgCl2, […] (Fargin et al., Nature 335, 358-360, 1988). The membranes were incubated in a final volume of 1 ml for 30 minutes at 30° C. with 1 nM [^3H]8-OH-DPAT, in the absence or presence of the test compounds. Non-specific binding was determined in the presence of 10 μM 5-HT. Incubation was stopped by addition of cold Tris-HC 1 buffer and rapid filtration through a 0.2%-polyethyleneimine-pretreated Whatman-GF/B or Schleicher-&-Schuell-GF52 filter.
The affinity of the tested compounds was evaluated as inhibition of specific binding of the radioligand to 5-HT1A receptors (IC50) by using the non-linear curve-fitting program Allfit (De Lean et al., Am. J. Physiol. 235, E97-E102 (1978). The IC50 value was converted to an affinity constant (Ki) by the equation of Cheng & Prusoff (Cheng Y. C., Prusoff W. H., Biochem. Pharmacol. 22, 3099-3108 (1973)).
Molecule `O=C(c1cccnc1)N1c2ccccc2CCC1CN1CCN(c2cccc3[nH]ccc23)CC1` (centres unmarked) [Example 68A33, 1-(4-Indolyl)-4-[1-(3-pyridylcarbonyl)-1,2,3,4-tetrahydroquinoline-2-ylmethyl]piperazine] has a Ki of 13.3 nM.
Molecule `COc1cccc(N2CCN(CC3CCc4ccccc4N3C(=O)C3CCCCC3)CC2)n1` (centres unmarked) [Example 35A35, 1-(1-Cyclohexanecarbonyl-1,2,3,4-tetrahydroquinoline-2-ylmethyl)-4-(6-methoxy-2-pyridinyl)piperazine] has a Ki of 6.2 nM.
Molecule `CCn1ccc2c(N3CCN(CC4CCc5ccccc5N4C(=O)C4CCCCC4)CC3)cccc21` (centres unmarked) [Example 62A, 1-(1-Cyclohexanecarbonyl-1,2,3,4-tetrahydroquinoline-2-ylmethyl)-4-(1-ethyl-4-indolyl)piperazine] has a Ki of 43.4 nM.
`O=C(c1ccco1)N1c2ccccc2CCC1CN1CCN(c2nccc3ccccc23)CC1` (centres unmarked) [Example 75A4, 1-[1-(2-Furancarbonyl)-1,2,3,4-tetrahydroquinolin-2-ylmethyl]-4-(1-isoquinolinyl)piperazine] showed a Ki of 14.6 nM.
`COc1cc(F)ccc1N1CCN(CC2CCc3c(Cl)cccc3N2C(=O)C2CCCCC2)CC1` (centres unmarked) [Example 55, 1-(5-Chloro-1-cyclohexanecarbonyl-1,2,3,4-tetrahydroquinoline-2-ylmethyl)-4-(4-fluoro-2-methoxyphenyl)piperazine] showed a Ki of 2.4 nM.
Work on `O=C(C1CCCCC1)N1c2ccccc2CCC1CN1CCN(c2ccccc2OCC(F)(F)F)CC1` (centres unmarked) [Example 4, 1-(1-Cyclohexanecarbonyl-1,2,3,4-tetrahydroquinoline-2-ylmethyl)-4-[2-(2,2,2-trifluoroethoxy)phenyl]piperazine] yielded a Ki of 0.7 nM.
`Cc1ccccc1C1CCN(CC2CCc3ccccc3N2C(=O)C2CCCCC2)CC1` (centres unmarked) [Example 72A56, 1-(1-Cyclohexanecarbonyl-1,2,3,4-tetrahydroquinolin-2-ylmethyl)-4-(2-methylphenyl)piperidine] was tested, and the Ki was 10.1 nM.
For `O=C(c1ccc[nH]1)N1c2ccccc2CCC1CN1CCN(c2cccc3c2OCCO3)CC1` (centres unmarked) [Example 76A2, 1-(2,3-Dihydrobenzo[1,4]dioxin-5-yl)-4-[1-(2-pyrrolylcarbonyl)-1,2,3,4-tetrahydroquinolin-2-ylmethyl]piperazine], the Ki was 5.1 nM.
Work on `CC(C)(C)OC(=O)N1CCC[C@@H]1C(=O)N1c2ccccc2CCC1CN1CCN(c2cccc3[nH]ccc23)CC1` (stereo partly drawn) [Example 71A4, 1-[1-(1-tert-Butoxycarbonyl-(2R)-pyrrolidin-2yl)carbonyl-1,2,3,4-tetrahydroquinoline-2-ylmethyl]-4-(4-indolyl)piperazine] yielded a Ki of 45.9 nM.
`O=C(C1CCCCC1)N1c2ccc(Br)cc2CCC1CN1CCN(c2cccc3[nH]ccc23)CC1` (centres unmarked) [Example 34, 1-(6-Bromo-1-cyclohexanecarbonyl-1,2,3,4-tetrahydroquinoline-2-ylmethyl)-4-(4-indolyl)piperazine] gave a Ki of 18.9 nM.
`O=S(=O)(Cc1ccccc1)N1c2ccccc2CCC1CN1CCN(c2cccc3c2OCCO3)CC1` (centres unmarked) [Example 76A11, 1-(2,3-Dihydrobenzo[1,4]dioxin-5-yl)-4-(1-phenylmethanesulphonyl-1,2,3,4-tetrahydroquinolin-2-ylmethyl)piperazine] was tested, and the Ki was 4.5 nM.
Work on `Cc1oc(S(=O)(=O)N2CCCCC2)cc1C(=O)N1c2ccccc2CCC1CN1CCN(c2cccc3[nH]ccc23)CC1` (centres unmarked) [Example 68A55, 1-(4-Indolyl)-4-[1-(2-methyl-5-piperidin-1-ylsulfonylfuran-3-carbonyl)-1,2,3,4-tetrahydroquinoline-2-ylmethyl]piperazine] yielded a Ki of 14.3 nM.
`Cc1cccc(NC(=O)N2c3ccccc3CCC2CN2CCN(c3cccc4[nH]ccc34)CC2)c1` (centres unmarked) [Example 69A1, 1-(4-Indolyl)-4-[1-(3-methylphenylaminocarbonyl)-1,2,3,4-tetrahydroquinoline-2-ylmethyl]piperazine] gave a Ki of 17.5 nM.
For “1-(2-Furoyl-1,2,3,4-tetrahydroquinoline-2-ylmethyl)-4-(4-indolyl)piperazine [Example 68A13]”, the Ki was 5.3 nM.
Work on `O=C(CCCOc1ccccc1)N1c2ccccc2CCC1CN1CCN(c2nccc3ccccc23)CC1` (centres unmarked) [Example 75A11, 1-(1-Isoquinolinyl)-4-[1-(4-phenoxybutanoyl)-1,2,3,4-tetrahydroquinolin-2-ylmethyl]piperazine] yielded a Ki of 17.1 nM.
In the case of `O=C(N1CCOCC1)N1c2ccccc2CCC1CN1CCN(c2cccc3[nH]ccc23)CC1` (centres unmarked) [Example 14, 1-[1-(4-Morpholinocarbonyl)-1,2,3,4-tetrahydroquinoline-2-ylmethyl]-4-(4-indolyl)piperazine], the Ki is reported as 82 nM.
`COc1ccc(C(F)(F)F)cc1N1CCN(CC2CCc3ccccc3N2C(=O)C2CCCCC2)CC1` (centres unmarked) [Example 60A9, 1-(1-Cyclohexanecarbonyl-1,2,3,4-tetrahydroquinoline-2-ylmethyl)-4-(2-methoxy-5-trifluoromethylphenyl)piperazine] showed a Ki of 6.5 nM.
`O=C(c1ccc[nH]1)N1c2ccccc2CCC1CN1CCN(c2cccc3[nH]ccc23)CC1` (centres unmarked) [Example 68A, 1-(4-Indolyl)-4-[1-(2-pyrrolylcarbonyl)-1,2,3,4-tetrahydroquinoline-2-ylmethyl]piperazine] was tested, and the Ki was 9.2 nM.
`O=C(C1CCCCC1)N1c2ccccc2CCC1CN1CCN(c2ncccc2C(F)(F)F)CC1` (centres unmarked) [Example 72A6, 1-(1-Cyclohexanecarbonyl-1,2,3,4-tetrahydroquinolin-2-ylmethyl)-4-(3-trifluoromethylpyridin-2-yl)piperazine] showed a Ki of 3.2 nM.
Molecule `O=C(Cc1cccs1)N1c2ccccc2CCC1CN1CCN(c2nccc3ccccc23)CC1` (centres unmarked) [Example 75A8, 1-(1-Isoquinolinyl)-4-[1-(2-thienyacetyl)-1,2,3,4-tetrahydroquinolin-2-ylmethyl]piperazine] has a Ki of 17 nM.
`O=C(C1CCCCC1)N1c2ccccc2CCC1CN1CCC(c2ccccc2F)CC1` (centres unmarked) [Example 72A40, 1-(1-Cyclohexanecarbonyl-1,2,3,4-tetrahydroquinolin-2-!ylmethyl)-4-(2-fluorophenyl)piperidine] was tested, and the Ki was 19.8 nM.
Molecule `O=C(C1CCCCC1)N1c2ccccc2CCC1CN1CCN(c2cccc(Cl)c2Cl)CC1` (centres unmarked) [Example 72A8, 1-(1-Cyclohexanecarbonyl-1,2,3,4-tetrahydroquinolin-2-ylmethyl)-4-(2,3-dichlorophenyl)piperazine] has a Ki of 31.6 nM.
For `CC(C)(C)OC(=O)n1cc(CC(=O)N2c3ccccc3CCC2CN2CCN(c3cccc4[nH]ccc34)CC2)c2ccccc21` (centres unmarked) [Example 71A2, 1-[1-[2-(1-tert-Butoxycarbonylindol-3-yl)acetyl]-1,2,3,4-tetrahydroquinoline-2-ylmethyl]-4-(4-indolyl]piperazine], the Ki was 92 nM.
With `O=C(C1CCCCC1)N1c2ccccc2CCC1CN1CCC(c2ccccc2Cl)CC1` (centres unmarked) [Example 72A69, 4-(2-Chlorophenyl)-1-(1-cyclohexanecarbonyl-1,2,3,4-tetrahydroquinolin-2-ylmethyl)piperidine] the Ki was 3.9 nM.
`O=C(C1CCCCC1)N1c2ccccc2CCC1CN1CCC(c2cccc(Cl)c2)CC1` (centres unmarked) [Example 72A68, 4-(3-Chlorophenyl)-1-(1-cyclohexanecarbonyl-1,2,3,4-tetrahydroquinolin-2-ylmethyl)piperidine] was tested, and the Ki was 38.6 nM.
For `N#Cc1ccc(C(=O)N2c3ccccc3CCC2CN2CCN(c3cccc4[nH]ccc34)CC2)cc1` (centres unmarked) [Example 68A3, 1-[1-(4-Cyanobenzoyl)-1,2,3,4-tetrahydroquinoline-2-ylmethyl]-4-(4-indolyl)piperazine], the Ki was 7.1 nM.
